The values below come from patent publication US6034136A, “Certain cyclic thio substituted acylaminoacid amide derivatives” (Novartis AG, priority 1998, dated 2000).

What all share (assay type): biochemical
Test [1] concerns the target recombinant human stromelysin (Homo sapiens, UniProt P08254). In words: inhibition of stromelysin activity (hydrolysis of Substance P, HPLC). The conditions noted are these: Substance P substrate, 30 minutes at 37° C. Here is the method: One test to determine the inhibition of stromelysin activity is based on its hydrolysis of Substance P using a modified procedure of Harrison et al (Harrison, R. A., Teahan J., and Stein R., A semicontinuous, high performance chromatography based assay for stromelysin, Anal. Biochem. 180, 110-113 (1989)). In this assay, Substance P is hydrolyzed by recombinant human stromelysin to generate a fragment, Substance P 7-11, which can be quantitated by HPLC. In a typical assay, a 10 mM stock solution of a compound to be tested is diluted in the assay buffer to 50 μM, mixed 1:1 with 8 μg recombinant human stromelysin (mol. wt. 45-47 kDa, 2 Units; where 1 Unit produces […] of Substance P 7-11 in 30 minutes) and incubated along with 0.5 mM Substance P in a final volume of 0.125 ml for 30 minutes at 37° C. The reaction is stopped by adding 10 mM EDTA and Substance P 7-11 is quantified on RP-8 HPLC. The IC50 for inhibition of stromelysin activity and Ki are calculated from control reaction without the inhibitor.
Compounds of formula I have an IC50 of about 10 nM to about 5 μM for inhibition of stromelysin activity.

Test [2] deals with T1, Human recombinant fibroblast collagenase (collagenase-1) (Homo sapiens, UniProt P03956).
T1 sequence (P03956 100-469): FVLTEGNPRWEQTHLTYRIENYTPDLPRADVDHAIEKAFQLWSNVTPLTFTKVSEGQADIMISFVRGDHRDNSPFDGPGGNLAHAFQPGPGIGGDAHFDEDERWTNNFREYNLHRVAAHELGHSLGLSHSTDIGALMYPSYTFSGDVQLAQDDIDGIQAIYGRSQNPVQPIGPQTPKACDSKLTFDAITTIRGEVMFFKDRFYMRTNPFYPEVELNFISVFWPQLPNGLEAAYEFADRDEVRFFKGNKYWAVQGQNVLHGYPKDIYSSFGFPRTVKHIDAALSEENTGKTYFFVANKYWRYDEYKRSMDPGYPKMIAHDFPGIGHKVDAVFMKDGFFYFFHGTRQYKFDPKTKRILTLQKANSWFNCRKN
In words: Collagenase-1 inhibitory activity (bovine type I collagen digestion, Coomasie blue). Conditions: 2 hours at 35° C., read-out: IC50 for inhibition of collagenase-1 activity. Here is the method:
Collagenase -1 inhibitory activity is determined as follows: ninety six-well, flat-bottom microtiter plates are first coated with bovine type I collagen (35 ug/well) over a two-day period at 30° C. using a humidified and then dry atmosphere; plates are rinsed, air dried for 3-4 hours, sealed with Saran wrap and stored in a refrigerator. Human recombinant fibroblast collagenase and a test compound (or buffer) are added to wells (total volume=0.1 ml) and plates are incubated for 2 hours at 35° C. under humidified conditions; the amount of collagenase used per well is that causing approximately 80% of maximal digestion of collagen. The incubation media are removed from the wells, which are then rinsed with buffer, followed by water. […] Sodium dodecyl sulfate (20% in 50% dimethylformamide in water) is added to solubilize the remaining stained collagen and the optical density at 570 nm wave length is measured. The decrease in optical density due to collagenase (from that of collagen without enzyme) is compared to the decrease in optical density due to the enzyme in the presence of test compound, and percent inhibition of enzyme activity is calculated. IC50 's are determined from a range of concentrations of inhibitors (4-5 concentrations, each tested in triplicate), and KI values are calculated. […]

For test [3], the target named is collagenase-3 (Homo sapiens, UniProt P45452). As to the kind of experiment: Collagenase-3 inhibitory activity (fluorescent substrate MCA-Pro-Leu-Gly-Dpa-Ala-Arg-NH2). The conditions noted are these: room temperature, 10 minutes preincubation, fluorescence; read-out: IC50 for inhibition of collagenase-3 activity. Here is the method:
Collagenase-3 inhibitory activity is determined as follows:
[…] solutions of substrate (MCA-Pro-Leu-Gly-Dpa-Ala-Arg-NH2, J. Biol. Chem. 271, 1544-1550, 1996) and 10 nM stock solution of inhibitor are prepared in DMSO. They are diluted with assay buffer ([…] at pH 7.5 containing 10 mM CaCl2, 0.002% sodium azide) as needed. Recombinant pro-collagenase-3 is activated with 1 mM APMA, and stored in the assay buffer after extensive dialysis in the assay buffer. Recombinant enzyme solution (0.05 ml, 1.3 nM) is mixed with 0.05 mL of inhibitor solution at various concentrations for 10 minutes at room temperature. Then 0.025 mL of 8 μM substrate solution is added and fluorescence (λex=325; λem=405) is continuously measured at room temperature. The percent inhibition of collagenase-3 activity is determined from the effect of inhibitor at various concentrations on the change in fluorescence; the IC50 is determined graphically.
Compounds of formula I have an IC50 of about 5 nM to about 100 nM for inhibition of collagenase-3 activity.

recombinant human stromelysin, sequence (P08254 100-477): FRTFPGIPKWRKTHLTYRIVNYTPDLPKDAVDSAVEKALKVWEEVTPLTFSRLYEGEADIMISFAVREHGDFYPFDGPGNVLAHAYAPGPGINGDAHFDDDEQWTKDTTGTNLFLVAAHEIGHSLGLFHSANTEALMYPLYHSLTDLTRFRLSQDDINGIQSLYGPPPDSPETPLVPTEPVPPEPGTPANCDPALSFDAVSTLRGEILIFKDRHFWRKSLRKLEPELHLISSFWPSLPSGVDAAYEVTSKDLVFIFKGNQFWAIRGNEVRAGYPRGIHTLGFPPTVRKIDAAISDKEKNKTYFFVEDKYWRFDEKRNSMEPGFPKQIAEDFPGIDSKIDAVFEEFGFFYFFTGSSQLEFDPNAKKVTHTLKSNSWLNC

Regarding `CCO[C@H]1CC[C@@](CS)(C(=O)N[C@@H](Cc2ccccc2)C(=O)Nc2ccccc2)CC1` [2(e), (S)-2-[N-(1-mercaptomethyl-cis-4-ethoxycyclohexanecarbonyl)amino]-3-phenylpropionic acid N-phenylamide], in test [1], the IC50 is around 70 nM. For the compound `CNC(=O)[C@H](Cc1ccccc1)NC(=O)C1(C(S)CCc2ccccc2)CCCCC1` (stereo partly drawn) [2(d), (S)-2-[N-(1-(1-mercapto-3-phenylpropyl)-cyclohexanecarbonyl)amino]-3-phenylpropionic acid N-methylamide], the values for the concentration for half-maximal inhibition (IC50) in test [2] and in test [3] were around 200 nM and around 20 nM, respectively.

Broadly, the IC50 is the concentration that inhibits the measured activity by half.
